One experiment deals with AMPK. As to the kind of experiment: AMPK activation in liver and muscle lysates after a single oral administration. It counts as in vivo, mouse. Conditions: normal C57BL/6J mice, single oral administration of 10 mg/kg.
Another experiment relates to db/db mice. As to the kind of experiment: [U-13C]-D-glucose tracer analysis in db/db mice. It counts as in vivo, mouse. Here is the method:
Male db/db mice (8 weeks) were orally gavaged once daily with vehicle, 5 mg/kg compound 309, or 10 mg/kg compound 309. Thirty minutes after dosing at day 8, 0.5 mg/kg of the metabolic tracer was administered, either via intraperitoneal injection for [U-^13C]-glucose or oral gavage for [U-^13C]-palmitate, followed by collection of liver, muscle, adipose tissue, and plasma at the timepoints indicated in the figure legends. Frozen samples were sent to SiDMAP, LLC (Los Angeles, Calif.) for isotope tracer analysis [Boros L G, Huang D, Heaney A P (2012) Fructose Drives Glucose via Direct Oxidation and Promotes Palmitate/Oleate Co-Release from Hepg2 Cells: Relevance with the Randle Cycle. Metabolomics 2: 107-115; Huang J, Simcox J, Mitchell T C, Jones D, Cox J, et al. (2013) Iron regulates glucose homeostasis in liver and muscle via AMP-activated protein kinase in mice. FASEB J.]. [U-^13C]-D-glucose and [U-^13C]-palmitate were from Sigma-Aldrich. Sample preparation, analysis, and informatics were performed on blinded samples. Statistical analyses were performed using the 2-tailed Student t test.
A more sensitive [U-^13C]-D-glucose tracer analysis was carried out as follows: Non-fasted db/db mice treated with vehicle or compound 309 for one week were given an intraperitoneal injection of an [U-^13C]-D-glucose tracer (0.5 mg/kg) followed by measurements of tracer carbon incorporation into various metabolites after glucose injection.

For the compound `COc1ccc(C(=O)C2CCN(C(=O)c3ccc(C(=O)NC4CCN(Cc5ccc(C#N)cc5)CC4)cn3)CC2)cc1` [Compound 309, N-(1-(4-cyanobenzyl)piperidin-4-yl)-6-(4-(4-methoxybenzoyl)piperidine-1-carbonyl)nicotinamide], the “AMPK activation in liver and muscle lysates” value in the experiment on AMPK was “robust AMPK activation”. Also, the “skeletal muscle palmitate and myristate levels” value with db/db mice (after saponification of muscle acylglycerols and acylcarnitines) is on record as “significant decreases”. For the same compound, in the experiment with db/db mice (all three tissues), the “13CO2 release (glucose oxidation via the TCA cycle)” value was “increased”. Moreover, the “13CO2 enrichment after [U-13C]-D-glucose” value with db/db mice (liver and adipose tissues, 60 and 90 minutes post-tracer) is listed as “clear dose-dependent increase”. For the same compound, the “13C-labeled fraction of palmitate” value in the experiment with db/db mice (plasma or liver, data not shown) is listed as “no increase”. Also, in the experiment on db/db mice (skeletal muscle), the “dose-dependence of complete glucose tracer oxidation” value is given as “no dose-dependence”. For the same compound, in the experiment on db/db mice (skeletal muscle, 60 and 90 minutes), the “13C-labeled fatty acids in palmitate and myristate pools” value is listed as “significantly enriched”. Besides, in the experiment with db/db mice (skeletal muscle, 60 minutes), the “13CO2 enrichment after [U-13C]-D-glucose vs vehicle” value is recorded as “no differences”. Further, in the experiment with db/db mice (skeletal muscle, 90 minute timepoint), the “level of 13C-labeled myristate compared to vehicle” value is given as “two-fold higher”. Also, the “tracer oxidation (13CO2 enrichment) after [U-13C]-D-glucose” value with db/db mice (skeletal muscle, 90 minutes) is on record as “clearly sustained”.

(Values after patent US20150087673A1, “METHODS FOR USING AND BIOMARKERS FOR AMPK-ACTIVATING COMPOUNDS” (RIGEL PHARMACEUTICALS, INC., priority 2013, published 2015).)
